Tests used:
[1] = target: recombinant human Cdc7/DBF4 (Homo sapiens, UniProt O00311); experiment: LanthaScreen Eu Kinase Inhibition Assay (Cdc7 inhibition); type: binding; details: recombinant human Cdc7/DBF4 0.5 nM, 60 min room temperature, 1% DMSO; read-out: Cdc7 CI50
Text: The LanthaScreen Eu Kinase Inhibition Assay uses an Alexa Fluor™ marker which binds to a kinase and is detected by the addition of an Eu-labelled antibody. The binding of the marker and the antibody to the kinase results in a high degree of FRET, whereas the displacement of the marker by an inhibitor results in a loss of FRET. Unlike many other kinase activity assays, this is a simple mix and read assay, without stages of development. This assay method has been developed by “Life Technologies” and they identify competitive ATP kinase inhibitors, making them suitable for the detection of any compound which binds to the ATP site.
The compounds are evaluated in 1% DMSO (final) in the well. A mixture of recombinant human Cdc7/DBF4 (0.5 nM), Eu-anti-GST antibody (2 nM) and Alexa Fluor marker (1 nM) in a buffer of 50 mM HEPES pH 7.5, 0.01% BRIJ-35, 10 mM MgCl2, 1 mM EGTA was used. In white plates with […], with a low volume, and coded (Greiner cat. #784207), 160 nL (100×compound in 100% DMSO), 3.84 μl (buffer with Cdc7/DBF4), […] (antibody), 4.0 μl (marker) are added. It is stirred for 30 s and incubated at room temperature for 60 min. Next, the fluorescence is measured in the plate reader and the data is analysed (Table 1).

[2] = PAMPA-BBB permeability (porcine brain lipid artificial membrane); type: in vitro ADME; set-up: key to PAMPA prediction of the penetration into the central nervous system (CNS): permeable to the BBB (CNS+) if it has a permeability >4.48×10^−6 cm·s^−1; CNS+/−: located in the zone of uncertainty; details: for Papp at 2.5 h: pig, PAMPA, porcine brain lipid, PBS pH 7.4/EtOH 70:30, 2 h 30 min at 25° C., mean ± SD, read-out: Pe (permeability, PAMPA-BBB); for PAMPA prediction of the penetration into the central nervous system (CNS): prediction from Pe, PAMPA-BBB
Text: An essential requirement that must be met by drugs for the treatment of neurodegenerative diseases is the ability to cross the blood-brain barrier (BBB) since, otherwise, they could not act on the target of interest. Therefore, for the compounds that are non-permeable or located in the zone of uncertainty, it could be necessary for them to be suitably conveyed in a pharmaceutical formulation by means of methods known by those skilled in the art, such as by means of encapsulation. This ability can be predicted in vitro by using a method known by the acronym PAMPA (Parallel Artificial Membrane Permeability Assay) described by Di et al. (Di, L.; Kerns, E. H.; Fan, K.; McConnell, O. J.; Carter, G. T. Eur. J. Med. Chem., 2003, 38 (3), 223-232) and that has subsequently been fine-tuned in our research group. Said method enables the effective permeability through artificial membranes to be predicted by means of a passive diffusion process.
First, it is necessary to validate the method, for which reason 10 commercial compounds, whose ability to penetrate the central nervous system (CNS) is known, are used and will be specified below, obtaining in this case good linear correlation between the experimental permeability values (Pe) and those described (FIG. 1). This correlation line obtained following the pattern described in the literature makes it possible to establish the limits for predicting whether a compound can cross the blood-brain barrier or not. Thus, a compound is considered to be permeable to the BBB (CNS+) if it has a permeability >4.48×10^−6 cm·s^−1.
For the procedure, between 3-5 mg of caffeine, desipramine, enoxacin, hydrocortisone, ofloxacin, piroxicam and testosterone, 12 mg of promazine and 25 mg of atenolol and verapamil were taken and dissolved in EtOH (1000 μl). 100 μl of these solutions were taken and EtOH (1400 μl) and phosphate buffer (PBS) pH=7.4 (3500 μl) were added in order to reach a final EtOH concentration of 30% v/v in solution. Lastly, the solutions were filtered.
Moreover, a solution of PBS/EtOH (70:30) was added to each well of the acceptor plate (180 μl). The donor plate was impregnated with a solution of porcine brain lipid (4 μl) dissolved in dodecane (20 mg·ml^−1). After 5 min, a solution of each compound was added on this plate (180 μl).
Of the compounds evaluated, between 1-2 mg were taken and dissolved in EtOH (1500 μl) and phosphate buffer (PBS) pH=7.4 (3500 μl), filtered and added to the donor plate. With these solutions, the wavelengths at which they absorb the compounds are determined and the initial absorbance levels at these wavelengths are measured by using a UV absorbance reader. Each sample was analysed at two to five wavelengths, in three wells and in two independent experiments.
Next, the donor plate was deposited on the acceptor plate forming a sort of “sandwich” and they were left to incubate for 2 h and 30 min at 25° C. Thus, the compounds will pass from the donor plate to the acceptor plate through the porcine brain lipid by means of passive diffusion. After that time, the donor plate is carefully removed and the final concentration and absorbance of both the commercial and the synthesised compounds are determined. The results obtained are expressed as the mean of the measurements [standard deviation (SD)] of the different experiments performed and are recorded in Table 2.

[3] = tested on: SH-SY5Y human neuroblastoma cell line; experiment: cells; type: cell-based
Method: The data represents the mean of four different experiments ±SEM (*p<0.05).
The SH-SY5Y human neuroblastoma cell line was grown at 37° C. with 5% CO2 in DMEN (Dulbecco's Modified Eagle Medium) enriched with L-glutamine (2 mM), 1% non-essential amino acids, 1% Penicillin/Streptomycin and 10% foetal bovine serum. In the state of semi-confluence, the cells were treated with the Cdc7 inhibitor (compound 3) at different concentrations for 1.30 hours post-addition of the causative agent of the TDP-43 phosphorylation; ethacrynic acid (20 μM) (Sigma). At 24 hours, the cellular viability was evaluated with MTT ([3-(4,5-dimethylthiazol-2-yl)-2,5-diphenyltetrazolium bromide) following a described procedure (Denizot F, Lang R. J Immunol Methods. 1987; 89:271-7).

Chain of recombinant human Cdc7/DBF4 (O00311 whole entry): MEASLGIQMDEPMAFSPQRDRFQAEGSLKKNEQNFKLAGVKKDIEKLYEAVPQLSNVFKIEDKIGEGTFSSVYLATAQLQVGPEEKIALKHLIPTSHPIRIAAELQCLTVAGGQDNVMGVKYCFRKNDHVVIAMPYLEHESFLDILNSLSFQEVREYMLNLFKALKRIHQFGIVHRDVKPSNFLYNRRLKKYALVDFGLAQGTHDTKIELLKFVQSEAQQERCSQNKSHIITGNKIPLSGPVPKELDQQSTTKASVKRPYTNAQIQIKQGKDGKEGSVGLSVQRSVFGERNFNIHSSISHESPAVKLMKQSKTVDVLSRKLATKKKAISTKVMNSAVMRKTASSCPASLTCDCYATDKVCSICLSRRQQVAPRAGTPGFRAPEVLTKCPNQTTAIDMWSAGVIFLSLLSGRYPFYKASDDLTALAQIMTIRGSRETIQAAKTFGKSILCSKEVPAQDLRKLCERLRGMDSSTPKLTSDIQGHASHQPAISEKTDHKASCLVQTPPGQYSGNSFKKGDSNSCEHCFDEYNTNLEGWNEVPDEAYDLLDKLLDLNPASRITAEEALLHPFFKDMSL
Chain of recombinant human Cdc7/DBF4 (Q9UBU7 whole entry partner): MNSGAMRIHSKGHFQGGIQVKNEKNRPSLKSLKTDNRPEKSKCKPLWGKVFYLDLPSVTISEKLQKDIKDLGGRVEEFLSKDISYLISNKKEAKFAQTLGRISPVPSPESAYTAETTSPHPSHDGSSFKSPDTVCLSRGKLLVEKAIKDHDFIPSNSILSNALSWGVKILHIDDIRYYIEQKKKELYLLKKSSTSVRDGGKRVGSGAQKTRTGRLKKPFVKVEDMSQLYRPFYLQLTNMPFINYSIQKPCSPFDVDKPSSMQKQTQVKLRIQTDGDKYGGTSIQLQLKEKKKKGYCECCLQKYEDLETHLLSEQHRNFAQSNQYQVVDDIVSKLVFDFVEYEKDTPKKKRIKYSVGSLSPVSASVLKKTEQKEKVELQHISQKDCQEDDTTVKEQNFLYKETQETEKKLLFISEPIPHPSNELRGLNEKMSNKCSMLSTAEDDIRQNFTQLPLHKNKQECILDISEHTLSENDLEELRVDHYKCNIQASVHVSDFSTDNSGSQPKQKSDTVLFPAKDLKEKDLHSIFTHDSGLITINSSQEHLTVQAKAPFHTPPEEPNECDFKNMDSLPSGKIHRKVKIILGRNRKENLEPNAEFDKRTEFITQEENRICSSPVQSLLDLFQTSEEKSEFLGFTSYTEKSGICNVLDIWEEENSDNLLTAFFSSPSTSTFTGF

SMILES	IC50 [1]	Papp at 2.5 h [2]	PAMPA prediction of the penetration into the central nervous system (CNS) [2]	Reversal of cell death caused by ethacrynic acid (neuroprotective effect, MTT viability) ([3]; SH-SY5Y cells, ethacrynic acid 20 μM, inhibitor at 10 μM, viability at 24 hours)	mortality at 20 µM ([3]; Homo sapiens, SH-SY5Y, 24 h, read-out: Cell mortality due to excess TDP-43 phosphorylation)
Clc1cccc(CCSc2ncnc3[nH]cnc23)c1 [compound 7, 6-((3-chlorophenethyl)thio)-9H-purine]	305 nM	10.6 ± 0.5 ×10⁻⁶ cm/s	CNS+ (permeable to the BBB (CNS+) if it has a permeability >4.48×10^−6 cm·s^−1)	–	–
COc1ccc(C(=O)CSc2ncnc3[nH]cnc23)cc1 [compound 2, 1-(4-methoxyphenyl)-2-((9H-purin-6-yl)thio)-ethan-1-one]	1080 nM	2.5 ± 0.1 ×10⁻⁶ cm/s	CNS+/−	–	–
Clc1ccccc1CCSc1ncnc2[nH]cnc12 [compound 8, 6-((2-chlorophenethyl)thio)-9H-purine]	–	11.6 ± 0.5 ×10⁻⁶ cm/s	CNS+ (permeable to the BBB (CNS+) if it has a permeability >4.48×10^−6 cm·s^−1)	–	–
Fc1ccc(CCSc2ncnc3[nH]cnc23)cc1 [compound 9, 6-((4-fluorophenethyl)thio)-9H-purine]	397 nM	10.2 ± 0.5 ×10⁻⁶ cm/s	CNS+ (permeable to the BBB (CNS+) if it has a permeability >4.48×10^−6 cm·s^−1)	–	–
O=C(CSc1ncnc2[nH]cnc12)c1ccc2ccccc2c1 [compound 3, 1-(naphthalen-2-yl)-2-((9H-purin-6-yl)thio)-ethan-1-one]	698 nM	9.6 ± 0.8 ×10⁻⁶ cm/s	CNS+ (permeable to the BBB (CNS+) if it has a permeability >4.48×10^−6 cm·s^−1)	this death is reversed	–
c1ccc(CSc2ncnc3[nH]ccc23)cc1 [compound 10, 4-(benzylthio)-7H-pyrrolo[2,3-d]pyrimidine]	234 nM	4.5 ± 1.2 ×10⁻⁶ cm/s	CNS+ (permeable to the BBB (CNS+) if it has a permeability >4.48×10^−6 cm·s^−1)	–	–
COc1cccc(C(=O)CSc2ncnc3[nH]cnc23)c1 [compound 4, 1-(3-methoxyphenyl)-2-((9H-purin-6-yl)thio)-ethan-1-one]	1710 nM	2.4 ± 1 ×10⁻⁶ cm/s	CNS+/−	–	–
O=C(CSc1ncnc2[nH]cnc12)c1ccc(I)cc1 [compound 5, 1-(4-iodophenyl)-2-((9H-purin-6-yl)thio)-ethan-1-one]	380 nM	10.5 ± 1.2 ×10⁻⁶ cm/s	CNS+ (permeable to the BBB (CNS+) if it has a permeability >4.48×10^−6 cm·s^−1)	–	–
C=C(CC)C(=O)c1ccc(OCC(=O)O)c(Cl)c1Cl [ethacrynic acid, reference compound]	–	–	–	–	40%
Clc1ccc(CCSc2ncnc3[nH]cnc23)cc1 [compound 6, 6-((4-chlorophenethyl)thio)-9H-purine]	142 nM	25.1 ± 1.3 ×10⁻⁶ cm/s	CNS+ (permeable to the BBB (CNS+) if it has a permeability >4.48×10^−6 cm·s^−1)	–	–

— patent US20210346388A1, “CDC7-Inhibiting Purine Derivatives and their use for the Treatment of Neurological Conditions” (CONSEJO SUPERIOR DE INVESTIGACIONES CIENTIFICAS (CSIC), priority 2018, published 2021)
